We go through four molecules from paper PMC12566046, “Arylpiperazinyl-Benzocycloheptapyrrole-Carboxamides Endowed with Dual Anticancer and Antiviral Activities” (Molecules, 2025).

What is called inhibition is how much of the control response was suppressed. As usually defined, the GI50 is the concentration giving 50% growth inhibition. Read a high GI50 as less potent growth inhibition.

A short description of data set [1]: in vitro. The settings on record: human.
The subject of data set [2] is MDCK cells. The settings on record: dog.
The test system of data set [3] is OVCAR-4 (ovarian cancer cell line). Description: NCI-60 single-dose assay. It is filed as cell-based, human. The procedure, abridged: (§1)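 Cytotoxicity was screened at a single dose across the NCI-60 human tumour cell panel, which covers leukemia, melanoma and lung, colon, CNS, ovarian, renal, prostate and breast cancers.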
Data set [4] relates to PC-3 (prostate cancer cell line). As to the kind of experiment: NCI-60 single-dose assay. It is filed as cell-based, human. The procedure, abridged: as §1
Data set [5] deals with cell line (breast cancer). Description: NCI-60 single-dose assay. Type of data set: cell-based. The settings on record: Homo sapiens, HS%/(T cell line), 10^−5 M, read-out: growth inhibition (GI%). The procedure, abridged:
as §1

Data set [6] deals with MCF-7 (breast cancer). As to the kind of experiment: NCI-60 five-dose assay. The settings on record: five-dose screen. It is filed as cell-based, human. The text has this: (§2) We first evaluated the cytotoxic activity of tricyclic-pyrrole carboxamides 1–20 using the NCI-60 cell line panel, representing nine different human cancers: leukemia, melanoma, and cancers of the lung, colon, central nervous system (CNS), ovary, kidney, prostate, and breast (the one-dose graph for compounds 1–20 is reported in Supplementary Materials, Figures S43–S62). Compounds 1, 5, 10, 11, 17, and 20 satisfied pre-determined threshold inhibition criteria in a minimum number of cell lines; therefore, they were also tested in the full five-dose assay (Figures S63–S68 in the Supplementary Materials).
(§3) Due to these preliminary results, six compounds, 1, 5, 10, 11, 17, and 20, were selected for the five-dose screen NCI-programme against the same panel of tumour cell lines.

Data set [7] concerns HOP-92 (non-small cell lung cancer). As to the kind of experiment: NCI-60 five-dose assay. It is filed as cell-based, human. The note with it: five-dose screen.
Source text: as §2, §3

Data set [8] relates to Vero TMPRSS cells. The settings on record: read-out: SARS‐CoV‐2/Vero TMPRSS CC50; preliminary screening (50, 5, 0.5 μM), Vero TMPRSS.
For data set [9], the system named is MDCK cells. As to the kind of experiment: Cytotoxicity on uninfected MDCK cells (WST-8, crystal violet). The settings on record: read-out: IAV/MDCK CC50; preliminary screening (50, 5, 0.5 μM), MDCK. A general note: Formazan colour is commonly taken as a measure of viable cells.

`O=C(NCCN1CCN(c2ccc(Cl)cc2)CC1)c1c(Cl)[nH]c2c1CCCc1ccccc1-2` [Compound 13] registered a CC50 in [1] of 62.2 µM. Further, in data set [2], the “IAV/MDCK CC50” value amounted to 225.00 µM.
With `COc1ccccc1N1CCN(CCNC(=O)c2c(Cl)[nH]c3c2CCCc2ccccc2-3)CC1` [Compound 15], the “growth inhibition (GI%)” value came out at 66.06% in [3] and 75.11% in [4].
Take `O=C(NCCCN1CCN(Cc2ccccc2)CC1)c1c(Cl)[nH]c2c1CCCc1ccccc1-2` [Compound 20, N-(3-(4-Benzylpiperazin-1-yl)propyl)-2-chloro-1,4,5,6-tetrahydrobenzo[6,7]cyclohepta[1,2-b]pyrrole-3-carboxamide]: the inhibition at 10 µM in data set [5] is 72.4%.
For the molecule “N-(3-(4-Benzylpiperazin-1-yl)propyl)-2-chloro-1,4,5,6-tetrahydrobenzo[6,7]cyclohepta[1,2-b]pyrrole-2-carboxamide [Compound 11]”, the results for the GI50 in [6] and in data set [7] were 2.77 µM and 2.72 µM, respectively. Further, the CC50 worked out at 15.4 µM in [8] and 5.38 µM in [9].
